Reference: ChEMBL document CHEMBL3991601, “The target landscape of clinical kinase drugs” (Science, 2017)
The source made the active and inactive calls.

Key:
[1] = molecular target: Myosin light chain kinase, smooth muscle (Homo sapiens, UniProt Q15746)
[2] = molecular target: T1, General transcription and DNA repair factor IIH helicase subunit XPD (Homo sapiens, UniProt P18074); details: read-out: Kd apparent; k-562, colo 205, sk-n-be(2) and mv-4-11
T1 sequence (P18074 whole entry): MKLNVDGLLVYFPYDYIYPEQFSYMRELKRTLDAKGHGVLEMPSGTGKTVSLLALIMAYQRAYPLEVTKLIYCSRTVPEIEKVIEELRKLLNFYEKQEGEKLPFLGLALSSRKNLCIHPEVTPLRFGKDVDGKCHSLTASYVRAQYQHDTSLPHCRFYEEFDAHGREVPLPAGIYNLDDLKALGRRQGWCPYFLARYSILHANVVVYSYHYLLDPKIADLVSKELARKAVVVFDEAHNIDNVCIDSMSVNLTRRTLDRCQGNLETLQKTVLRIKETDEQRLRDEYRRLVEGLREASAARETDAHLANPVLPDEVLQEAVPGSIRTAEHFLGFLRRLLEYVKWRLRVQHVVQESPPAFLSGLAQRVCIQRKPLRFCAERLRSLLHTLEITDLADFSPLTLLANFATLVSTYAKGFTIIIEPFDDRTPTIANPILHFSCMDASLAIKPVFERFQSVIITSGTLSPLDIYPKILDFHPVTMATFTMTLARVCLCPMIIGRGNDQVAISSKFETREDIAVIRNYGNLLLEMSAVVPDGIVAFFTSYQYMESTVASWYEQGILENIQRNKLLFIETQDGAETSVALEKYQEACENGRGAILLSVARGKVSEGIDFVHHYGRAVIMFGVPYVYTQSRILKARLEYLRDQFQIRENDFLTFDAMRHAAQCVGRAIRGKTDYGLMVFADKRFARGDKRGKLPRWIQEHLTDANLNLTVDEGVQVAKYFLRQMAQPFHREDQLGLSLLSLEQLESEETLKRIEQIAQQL

[3] = molecular target: U5 small nuclear ribonucleoprotein 200 kDa helicase (Homo sapiens, UniProt O75643)
[4] = molecular target: T2, ATP-dependent RNA helicase DDX1 (Homo sapiens, UniProt Q92499)
T2 sequence (Q92499 whole entry): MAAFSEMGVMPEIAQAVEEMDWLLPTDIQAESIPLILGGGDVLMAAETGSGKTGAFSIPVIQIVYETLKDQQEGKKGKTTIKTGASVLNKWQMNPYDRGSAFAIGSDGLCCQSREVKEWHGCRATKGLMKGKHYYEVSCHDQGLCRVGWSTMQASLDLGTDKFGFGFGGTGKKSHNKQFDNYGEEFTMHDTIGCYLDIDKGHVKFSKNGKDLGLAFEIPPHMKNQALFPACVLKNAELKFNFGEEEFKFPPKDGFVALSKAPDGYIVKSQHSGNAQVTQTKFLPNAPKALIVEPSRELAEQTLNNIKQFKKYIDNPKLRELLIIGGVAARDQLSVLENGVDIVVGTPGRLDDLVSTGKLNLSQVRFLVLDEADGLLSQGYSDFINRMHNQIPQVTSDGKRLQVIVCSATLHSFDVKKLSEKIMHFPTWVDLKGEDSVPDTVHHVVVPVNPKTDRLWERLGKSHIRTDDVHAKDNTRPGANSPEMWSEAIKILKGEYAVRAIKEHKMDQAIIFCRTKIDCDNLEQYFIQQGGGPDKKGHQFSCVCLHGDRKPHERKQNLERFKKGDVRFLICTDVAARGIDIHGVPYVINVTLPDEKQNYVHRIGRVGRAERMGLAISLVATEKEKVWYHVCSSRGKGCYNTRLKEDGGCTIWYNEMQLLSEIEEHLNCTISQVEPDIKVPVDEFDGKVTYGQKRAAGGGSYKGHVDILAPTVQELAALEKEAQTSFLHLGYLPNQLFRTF

[5] = molecular target: Bone morphogenetic protein receptor type-1B (Homo sapiens, UniProt O00238)
[6] = molecular target: T3, Acyl-CoA dehydrogenase family member 11 (Homo sapiens, UniProt Q709F0)
T3 sequence (Q709F0 whole entry): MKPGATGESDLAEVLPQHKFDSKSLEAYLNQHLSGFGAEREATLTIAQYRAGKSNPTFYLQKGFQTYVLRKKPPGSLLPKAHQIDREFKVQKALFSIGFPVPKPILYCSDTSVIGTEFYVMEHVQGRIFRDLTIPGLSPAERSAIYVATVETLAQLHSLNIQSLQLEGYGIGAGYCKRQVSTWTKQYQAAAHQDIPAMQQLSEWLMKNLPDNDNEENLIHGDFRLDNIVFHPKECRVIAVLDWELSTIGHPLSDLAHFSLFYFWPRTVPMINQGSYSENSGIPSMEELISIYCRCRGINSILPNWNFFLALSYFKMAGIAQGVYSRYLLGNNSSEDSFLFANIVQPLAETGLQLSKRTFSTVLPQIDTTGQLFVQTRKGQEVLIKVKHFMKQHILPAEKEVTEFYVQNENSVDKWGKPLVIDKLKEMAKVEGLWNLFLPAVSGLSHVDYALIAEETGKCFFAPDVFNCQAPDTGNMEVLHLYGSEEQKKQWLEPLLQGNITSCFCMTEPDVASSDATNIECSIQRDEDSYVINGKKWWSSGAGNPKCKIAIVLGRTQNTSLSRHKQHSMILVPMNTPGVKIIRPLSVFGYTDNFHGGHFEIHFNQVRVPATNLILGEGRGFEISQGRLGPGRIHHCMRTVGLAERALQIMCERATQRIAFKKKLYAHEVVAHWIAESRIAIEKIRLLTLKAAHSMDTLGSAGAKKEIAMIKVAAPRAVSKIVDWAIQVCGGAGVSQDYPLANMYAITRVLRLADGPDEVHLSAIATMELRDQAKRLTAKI

[7] = molecular target: RAC-gamma serine/threonine-protein kinase (Homo sapiens, UniProt Q9Y243)
[8] = molecular target: Mitogen-activated protein kinase 1 (Homo sapiens, UniProt P28482)
[9] = molecular target: Mitogen-activated protein kinase kinase kinase 20 (Homo sapiens, UniProt Q9NYL2)
Note: in the data inactive means no Kd found up to 30 µM.

Chain of Mitogen-activated protein kinase kinase kinase 20 (Q9NYL2 whole entry): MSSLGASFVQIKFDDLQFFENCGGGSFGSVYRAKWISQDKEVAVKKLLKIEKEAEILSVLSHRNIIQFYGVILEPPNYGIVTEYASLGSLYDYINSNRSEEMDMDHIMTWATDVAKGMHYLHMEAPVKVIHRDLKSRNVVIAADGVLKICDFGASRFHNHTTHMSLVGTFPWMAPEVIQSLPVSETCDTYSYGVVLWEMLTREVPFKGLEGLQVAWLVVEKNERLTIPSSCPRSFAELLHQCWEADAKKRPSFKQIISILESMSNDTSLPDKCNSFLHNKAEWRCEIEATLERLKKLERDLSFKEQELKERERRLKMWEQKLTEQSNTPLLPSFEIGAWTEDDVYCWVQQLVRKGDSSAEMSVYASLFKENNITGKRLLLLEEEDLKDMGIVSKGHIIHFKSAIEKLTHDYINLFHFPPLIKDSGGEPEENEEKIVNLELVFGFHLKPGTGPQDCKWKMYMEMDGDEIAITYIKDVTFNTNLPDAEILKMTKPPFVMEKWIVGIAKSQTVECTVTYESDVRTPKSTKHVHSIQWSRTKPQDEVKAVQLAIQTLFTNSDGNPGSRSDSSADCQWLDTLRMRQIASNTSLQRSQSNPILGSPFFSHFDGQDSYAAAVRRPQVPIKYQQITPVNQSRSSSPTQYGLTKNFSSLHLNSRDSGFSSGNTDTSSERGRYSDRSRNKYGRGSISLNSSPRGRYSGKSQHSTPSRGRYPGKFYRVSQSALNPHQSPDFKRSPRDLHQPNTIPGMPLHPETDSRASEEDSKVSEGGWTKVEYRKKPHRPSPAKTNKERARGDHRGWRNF
Chain of Bone morphogenetic protein receptor type-1B (O00238 whole entry): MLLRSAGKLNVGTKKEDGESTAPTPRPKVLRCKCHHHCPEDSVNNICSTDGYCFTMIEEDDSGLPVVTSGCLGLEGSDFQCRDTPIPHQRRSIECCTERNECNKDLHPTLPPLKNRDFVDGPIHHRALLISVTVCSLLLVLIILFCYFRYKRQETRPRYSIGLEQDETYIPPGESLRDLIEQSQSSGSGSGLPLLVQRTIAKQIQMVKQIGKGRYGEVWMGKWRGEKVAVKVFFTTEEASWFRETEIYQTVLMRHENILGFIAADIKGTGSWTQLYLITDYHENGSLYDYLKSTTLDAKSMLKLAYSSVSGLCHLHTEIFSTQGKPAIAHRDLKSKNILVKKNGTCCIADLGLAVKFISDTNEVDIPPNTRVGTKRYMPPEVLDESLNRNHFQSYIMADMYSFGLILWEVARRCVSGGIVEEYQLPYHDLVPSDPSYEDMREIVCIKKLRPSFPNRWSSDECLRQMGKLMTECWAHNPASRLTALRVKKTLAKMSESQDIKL
Chain of Myosin light chain kinase, smooth muscle (Q15746 whole entry): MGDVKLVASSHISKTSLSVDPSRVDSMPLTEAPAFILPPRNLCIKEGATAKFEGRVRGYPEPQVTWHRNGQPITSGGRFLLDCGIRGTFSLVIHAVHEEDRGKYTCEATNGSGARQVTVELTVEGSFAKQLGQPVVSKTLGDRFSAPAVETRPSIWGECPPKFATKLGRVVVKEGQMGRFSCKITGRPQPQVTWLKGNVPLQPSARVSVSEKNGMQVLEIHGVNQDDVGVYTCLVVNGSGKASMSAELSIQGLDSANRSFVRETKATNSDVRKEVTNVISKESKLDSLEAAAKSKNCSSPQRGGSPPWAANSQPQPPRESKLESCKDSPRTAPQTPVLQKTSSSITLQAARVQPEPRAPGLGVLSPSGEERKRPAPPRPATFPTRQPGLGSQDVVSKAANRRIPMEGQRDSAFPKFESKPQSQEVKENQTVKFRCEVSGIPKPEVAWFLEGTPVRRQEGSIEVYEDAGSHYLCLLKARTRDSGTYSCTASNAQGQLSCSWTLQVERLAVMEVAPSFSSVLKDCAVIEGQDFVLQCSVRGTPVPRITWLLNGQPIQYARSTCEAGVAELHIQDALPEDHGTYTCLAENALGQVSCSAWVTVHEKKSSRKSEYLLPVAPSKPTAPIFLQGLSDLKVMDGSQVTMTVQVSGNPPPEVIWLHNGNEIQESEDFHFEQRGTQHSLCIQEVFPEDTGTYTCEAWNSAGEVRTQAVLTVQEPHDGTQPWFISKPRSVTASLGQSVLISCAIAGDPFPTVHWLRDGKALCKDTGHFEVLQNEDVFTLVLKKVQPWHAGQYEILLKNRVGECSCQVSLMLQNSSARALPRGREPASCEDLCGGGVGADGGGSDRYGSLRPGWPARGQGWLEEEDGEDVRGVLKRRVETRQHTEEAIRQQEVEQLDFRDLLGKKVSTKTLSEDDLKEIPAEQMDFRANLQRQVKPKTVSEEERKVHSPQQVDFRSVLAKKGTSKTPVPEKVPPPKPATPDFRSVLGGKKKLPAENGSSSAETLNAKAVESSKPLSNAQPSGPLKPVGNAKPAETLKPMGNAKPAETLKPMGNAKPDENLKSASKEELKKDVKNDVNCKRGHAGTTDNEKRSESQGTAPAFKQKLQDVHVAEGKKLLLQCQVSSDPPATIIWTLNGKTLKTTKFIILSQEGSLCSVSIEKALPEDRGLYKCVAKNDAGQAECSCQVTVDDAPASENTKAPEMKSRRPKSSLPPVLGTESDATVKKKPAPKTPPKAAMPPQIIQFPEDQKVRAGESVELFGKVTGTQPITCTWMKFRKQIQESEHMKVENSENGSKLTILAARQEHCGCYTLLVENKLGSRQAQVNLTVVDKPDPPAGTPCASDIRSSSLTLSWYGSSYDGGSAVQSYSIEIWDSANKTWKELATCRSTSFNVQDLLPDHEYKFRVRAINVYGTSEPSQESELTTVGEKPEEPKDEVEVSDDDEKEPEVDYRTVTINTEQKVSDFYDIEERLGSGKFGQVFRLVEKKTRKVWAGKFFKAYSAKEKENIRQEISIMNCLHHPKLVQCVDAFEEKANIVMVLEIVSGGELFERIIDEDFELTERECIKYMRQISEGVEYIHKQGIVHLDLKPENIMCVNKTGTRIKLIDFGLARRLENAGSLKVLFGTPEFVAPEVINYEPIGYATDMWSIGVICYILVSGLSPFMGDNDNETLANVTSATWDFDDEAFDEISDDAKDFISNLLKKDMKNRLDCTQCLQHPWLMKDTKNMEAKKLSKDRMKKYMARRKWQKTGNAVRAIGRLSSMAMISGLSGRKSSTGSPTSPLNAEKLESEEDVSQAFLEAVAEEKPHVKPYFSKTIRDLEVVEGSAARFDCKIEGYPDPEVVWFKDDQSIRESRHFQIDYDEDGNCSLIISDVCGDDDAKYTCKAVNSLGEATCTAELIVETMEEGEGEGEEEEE
Chain of RAC-gamma serine/threonine-protein kinase (Q9Y243 whole entry): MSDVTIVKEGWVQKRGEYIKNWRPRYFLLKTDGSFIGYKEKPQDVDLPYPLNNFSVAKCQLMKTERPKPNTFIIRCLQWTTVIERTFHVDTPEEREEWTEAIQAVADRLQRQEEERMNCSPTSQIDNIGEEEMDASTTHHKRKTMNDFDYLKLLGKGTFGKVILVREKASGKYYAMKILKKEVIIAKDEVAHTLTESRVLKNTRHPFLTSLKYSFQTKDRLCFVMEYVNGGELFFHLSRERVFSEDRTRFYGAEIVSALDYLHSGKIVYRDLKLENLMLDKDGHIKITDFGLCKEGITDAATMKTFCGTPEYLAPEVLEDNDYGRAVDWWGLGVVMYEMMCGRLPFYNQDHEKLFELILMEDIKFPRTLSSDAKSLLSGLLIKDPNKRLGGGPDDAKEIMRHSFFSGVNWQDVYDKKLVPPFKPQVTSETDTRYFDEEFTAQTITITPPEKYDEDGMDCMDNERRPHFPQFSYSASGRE
Chain of Mitogen-activated protein kinase 1 (P28482 whole entry): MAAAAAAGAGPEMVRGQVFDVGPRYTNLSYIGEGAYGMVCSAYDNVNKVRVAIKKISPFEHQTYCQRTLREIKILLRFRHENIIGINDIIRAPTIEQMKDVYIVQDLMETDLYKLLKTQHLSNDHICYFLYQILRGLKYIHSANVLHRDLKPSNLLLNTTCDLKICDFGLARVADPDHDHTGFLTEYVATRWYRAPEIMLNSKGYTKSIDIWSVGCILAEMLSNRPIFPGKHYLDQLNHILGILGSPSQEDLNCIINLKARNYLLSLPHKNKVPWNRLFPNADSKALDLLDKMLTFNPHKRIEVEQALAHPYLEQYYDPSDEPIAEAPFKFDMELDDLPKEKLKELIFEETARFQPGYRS

## Cc1ccc(NC(=O)c2ccc(CN3CC[C@H](N(C)C)C3)c(C(F)(F)F)c2)cc1Nc1nccc(-c2cncnc2)n1 [BAFETINIB]
[1]
  Kd: 1.21 µM
[2]
  Kd: > 30 µM (inactive)
[3]
  Kd: > 30 µM (inactive)
[4]
  Kd: > 30 µM (inactive)
[5]
  Kd: > 30 µM (inactive)
[6]
  Kd: > 30 µM (inactive)
[7]
  Kd: > 30 µM (inactive)
[8]
  Kd: > 30 µM (inactive)
[9]
  Kd: 0.065 µM (active)

## CCS(=O)(=O)N1CC(CC#N)(n2cc(-c3ncnc4[nH]ccc34)cn2)C1 [BARICITINIB]
[1]
  Kd: > 30 µM (inactive)
[2]
  Kd: > 30 µM (inactive)
[3]
  Kd: > 30 µM (inactive)
[4]
  Kd: > 30 µM (inactive)
[5]
  Kd: > 30 µM (inactive)
[6]
  Kd: > 30 µM (inactive)
[7]
  Kd: > 30 µM (inactive)
[8]
  Kd: > 30 µM (inactive)
[9]
  Kd: > 30 µM (inactive)

## Cc1cc2c(F)c(Oc3ncnn4cc(OC[C@@H](C)OC(=O)[C@H](C)N)c(C)c34)ccc2[nH]1 [BRIVANIB ALANINATE]
[1]
  Kd: > 30 µM (inactive)
[2]
  Kd: > 30 µM (inactive)
[3]
  Kd: > 30 µM (inactive)
[4]
  Kd: > 30 µM (inactive)
[5]
  Kd: > 30 µM (inactive)
[6]
  Kd: > 30 µM (inactive)
[7]
  Kd: > 30 µM (inactive)
[8]
  Kd: > 30 µM (inactive)
[9]
  Kd: > 30 µM (inactive)

## CNC(=O)c1ccc(-c2cnc3ncc(Cc4ccc5ncccc5c4)n3n2)cc1F [CAPMATINIB]
[1]
  Kd: > 30 µM (inactive)
[2]
  Kd: > 30 µM (inactive)
[3]
  Kd: > 30 µM (inactive)
[4]
  Kd: > 30 µM (inactive)
[5]
  Kd: > 30 µM (inactive)
[6]
  Kd: > 30 µM (inactive)
[7]
  Kd: > 30 µM (inactive)
[8]
  Kd: > 30 µM (inactive)
[9]
  Kd: > 30 µM (inactive)

## O=C(c1ccc(F)c(F)c1Nc1ccc(I)cc1F)N1CC(O)([C@@H]2CCCCN2)C1 [COBIMETINIB]
[1]
  Kd: > 30 µM (inactive)
[2]
  Kd: > 30 µM (inactive)
[3]
  Kd: > 30 µM (inactive)
[4]
  Kd: > 30 µM (inactive)
[5]
  Kd: > 30 µM (inactive)
[6]
  Kd: > 30 µM (inactive)
[7]
  Kd: > 30 µM (inactive)
[8]
  Kd: > 30 µM (inactive)
[9]
  Kd: > 30 µM (inactive)

## CO[C@H]1C[C@@H]2CC[C@@H](C)[C@@](O)(O2)C(=O)C(=O)N2CCCC[C@H]2C(=O)O[C@H]([C@H](C)C[C@@H]2CC[C@@H](OCCO)[C@H](OC)C2)CC(=O)[C@H](C)/C=C(\C)[C@@H](O)[C@@H](OC)C(=O)[C@H](C)C[C@H](C)/C=C/C=C/C=C/1C [EVEROLIMUS]
[1]
  Kd: > 30 µM (inactive)
[2]
  Kd: > 30 µM (inactive)
[3]
  Kd: > 30 µM (inactive)
[4]
  Kd: > 30 µM (inactive)
[5]
  Kd: > 30 µM (inactive)
[6]
  Kd: > 30 µM (inactive)
[7]
  Kd: > 30 µM (inactive)
[8]
  Kd: > 30 µM (inactive)
[9]
  Kd: > 30 µM (inactive)

## COCCNCc1ccc(-c2cc3nccc(Oc4ccc(NC(=S)NC(=O)Cc5ccc(F)cc5)cc4F)c3s2)nc1 [GLESATINIB]
[1]
  Kd: > 30 µM (inactive)
[2]
  Kd: > 30 µM (inactive)
[3]
  Kd: > 30 µM (inactive)
[4]
  Kd: > 30 µM (inactive)
[5]
  Kd: > 30 µM (inactive)
[6]
  Kd: > 30 µM (inactive)
[7]
  Kd: > 30 µM (inactive)
[8]
  Kd: > 30 µM (inactive)
[9]
  Kd: > 30 µM (inactive)

## O=C1NC(=O)/C(=C/c2ccc3nccc(-c4ccncc4)c3c2)S1 [GSK-1059615]
[1]
  Kd: > 30 µM (inactive)
[2]
  Kd: > 30 µM (inactive)
[3]
  Kd: > 30 µM (inactive)
[4]
  Kd: > 30 µM (inactive)
[5]
  Kd: > 30 µM (inactive)
[6]
  Kd: > 30 µM (inactive)
[7]
  Kd: > 30 µM (inactive)
[8]
  Kd: > 30 µM (inactive)
[9]
  Kd: > 30 µM (inactive)

## Cn1cc(-c2ccc3nnc(C(F)(F)c4ccc5ncccc5c4)n3n2)cn1 [JNJ-38877605]
[1]
  Kd: > 30 µM (inactive)
[2]
  Kd: > 30 µM (inactive)
[3]
  Kd: > 30 µM (inactive)
[4]
  Kd: > 30 µM (inactive)
[5]
  Kd: > 30 µM (inactive)
[6]
  Kd: > 30 µM (inactive)
[7]
  Kd: > 30 µM (inactive)
[8]
  Kd: > 30 µM (inactive)
[9]
  Kd: > 30 µM (inactive)

## COc1cc2nccc(Oc3ccc(NC(=O)NC4CC4)c(Cl)c3)c2cc1C(N)=O [LENVATINIB]
[1]
  Kd: > 30 µM (inactive)
[2]
  Kd: > 30 µM (inactive)
[3]
  Kd: > 30 µM (inactive)
[4]
  Kd: > 30 µM (inactive)
[5]
  Kd: > 30 µM (inactive)
[6]
  Kd: > 30 µM (inactive)
[7]
  Kd: > 30 µM (inactive)
[8]
  Kd: > 30 µM (inactive)
[9]
  Kd: > 30 µM (inactive)

## Cn1cc(-c2ccc(F)c(C(F)(F)F)c2)nc1C1CCN(c2ncnc3[nH]ncc23)CC1 [LY-2584702]
[1]
  Kd: > 30 µM (inactive)
[2]
  Kd: > 30 µM (inactive)
[3]
  Kd: > 30 µM (inactive)
[4]
  Kd: > 30 µM (inactive)
[5]
  Kd: > 30 µM (inactive)
[6]
  Kd: > 30 µM (inactive)
[7]
  Kd: > 30 µM (inactive)
[8]
  Kd: > 30 µM (inactive)
[9]
  Kd: > 30 µM (inactive)

## O=C(O)[C@]1(Cc2cccc(Nc3nccs3)n2)CC[C@@H](Oc2cccc(Cl)c2F)CC1 [MK-5108]
[1]
  Kd: > 30 µM (inactive)
[2]
  Kd: > 30 µM (inactive)
[3]
  Kd: > 30 µM (inactive)
[4]
  Kd: > 30 µM (inactive)
[5]
  Kd: > 30 µM (inactive)
[6]
  Kd: > 30 µM (inactive)
[7]
  Kd: > 30 µM (inactive)
[8]
  Kd: > 30 µM (inactive)
[9]
  Kd: > 30 µM (inactive)

## OCCn1cc(-c2cnc3nnn(Cc4ccc5ncccc5c4)c3n2)cn1 [PF-04217903]
[1]
  Kd: > 30 µM (inactive)
[2]
  Kd: > 30 µM (inactive)
[3]
  Kd: > 30 µM (inactive)
[4]
  Kd: > 30 µM (inactive)
[5]
  Kd: > 30 µM (inactive)
[6]
  Kd: > 30 µM (inactive)
[7]
  Kd: > 30 µM (inactive)
[8]
  Kd: > 30 µM (inactive)
[9]
  Kd: > 30 µM (inactive)

## CNC(=O)c1ccc(C)c(-n2c(C)cc(OCc3ccc(F)cc3F)c(Br)c2=O)c1 [PH-797804]
[1]
  Kd: > 30 µM (inactive)
[2]
  Kd: > 30 µM (inactive)
[3]
  Kd: > 30 µM (inactive)
[4]
  Kd: > 30 µM (inactive)
[5]
  Kd: > 30 µM (inactive)
[6]
  Kd: > 30 µM (inactive)
[7]
  Kd: > 30 µM (inactive)
[8]
  Kd: > 30 µM (inactive)
[9]
  Kd: > 30 µM (inactive)

## COc1cc(OC)c(/C=C/S(=O)(=O)Cc2ccc(OC)c(NCC(=O)O)c2)c(OC)c1 [RIGOSERTIB]
[1]
  Kd: > 30 µM (inactive)
[2]
  Kd: > 30 µM (inactive)
[3]
  Kd: > 30 µM (inactive)
[4]
  Kd: > 30 µM (inactive)
[5]
  Kd: > 30 µM (inactive)
[6]
  Kd: > 30 µM (inactive)
[7]
  Kd: > 30 µM (inactive)
[8]
  Kd: > 30 µM (inactive)
[9]
  Kd: > 30 µM (inactive)
